Laboratory results as given in US20220308044A1, “NOVEL LIVE-CELL ASSAY FOR NEURONAL ACTIVITY” (UNIVERSITY OF UTAH RESEARCH FOUNDATION, priority 2019, published 2022).

Columns and labels:
WT neurons = experiment: Secreted Neuronal Activity Reporter (SNAR) dual secreted luciferase assay in primary neuronal cultures; type: cell-based, mouse; settings: for effect of individual inhibitors on SNAR activity: prolonged treatment, FIG. 3A
CamKII neurons = experiment: Cre-dependent (floxed) SNAR assay with CamKII:Cre; type: cell-based, mouse; settings: FIG. 6C
Experimental: Plasmid Cloning. The SNAR construct was synthesized by first introducing 2 core SARE (cSARE) sequences into an AAV vector backbone that included the Arc minimal promoter and the Gaussia luciferase coding sequences using inFusion cloning. A single cSARE sequence was synthesized using a long primer that was then used as a PCR template. Two additional cSARE sequences were then added, one at a time preceding the first 2 cSAREs. The entire 4× cSARE-ArcMin-Gluc was then cloned as an insert into an FCK vector (Addgene, Watertown, Mass.; catalog no. 51694) using restriction enzymes PacI and EcoRI for use as a transfer plasmid and packaging into lentivirus particles. Secreted Nanoluciferase (sNluc) was obtained by adding the Ig-kappa signal peptide to its N-terminus using a long primer. sNluc was then inserted into an FCK vector with the hPGK promoter. Each construct was then cloned into a DIO vector backbone (Addgene, Watertown, Mass.; catalog no. 87168) to obtain a Cre-dependent expression construct. […]
Luciferase Assays. To determine luciferase activity luminescencence from media samples was measured. […] For substrates, Coelenterazine (CTZ)-native (NanoLight Technology, Pinetope, Ariz.; catalog no. 303) and FMZ (Promega NanoGlo Assay; Promega, Madison, Wis.; catalog no. N1110) were added using a micro-injector connected to the plate reader (BioTek Synergy HT; Winooski, Vt.). […]

NC(CCCP(=O)(O)O)C(=O)O (centres unmarked) [AP5]
effect of individual inhibitors on SNAR activity (WT neurons): dramatically suppressed SNAR activity
effect on reporter accumulation (CamKII neurons): decrease in reporter accumulation similar to that of the non-specific reporter

NC(=O)N1c2ccccc2C=Cc2ccccc21 [CBZ, carbamazepine]
effect on SNAR (WT neurons; 50 μM, FIG. 4A): reduced SNAR

N#Cc1cc2[nH]c(=O)c(=O)[nH]c2cc1[N+](=O)[O-] [CNQX]
time after treatment at which the increase in SNAR activity was observed (WT neurons; kinetic analysis, chronic blockage of AMPAR-mediated transmission, FIG. 3B): 16 to 40 h
effect of individual inhibitors on SNAR activity (WT neurons): increased SNAR activity

N#CC(=C(/N)Sc1ccccc1N)/C(C#N)=C(\N)Sc1ccccc1N [U0126]
effect on SNAR activity / accumulation (WT neurons): significantly suppressed SNAR accumulation

O=C1NC(=O)C(c2ccccc2)(c2ccccc2)N1 [phenytoin]
effect on reporter activity (WT neurons; 80 μM, at DIV14, FIG. 4A): significantly reduced reporter activity

B1: BDNF: a neurotropic factor that enhances synapse formation and transmission (protein, UniProt P23560 19-247, looked up)
Neurotrophic factor BDNF …: APMKEANIRGQGGLAYPGVRTHGTLESVNGPKAGSRGLTSLADTFEHVIEELLDEDQKVRPNEENNKDADLYTSRVMLSSQVPLEPPLLFLLEEYKNYLDAANMSMRVRRHSDPARRGELSVCDSISEWVTAADKKTAVDMSGGTVTVLEKVPVSKGQLKQYFYETKCNPMGYTKEGCRGIDKRHWNSQCRTTQSYVRALTMDSKKRIGWRFIRIDTSCVCTLTIKRGR
effect on reporter activity compared to a vehicle control (WT neurons; 50 ng/mL, 16 hours and 40 hours after the treatment, FIG. 4B): significantly and robustly increased reporter activity
